Reference: BindingDB's records for patent US20190276450 (Abbvie, 2019)

Legend:
[1] = biological target: Non-receptor tyrosine-protein kinase TYK2 (Homo sapiens, UniProt P29597); assay: TYK2 (TYK2/JAK2 PSTAT4 T-BLAST) Alpha Screen Assay
Experimental: IL-12 is known to transduce its signal through IL-12 receptor via Jak2 and/or Tyk2. For that reason, the activity against Tyk2/Jak2 was measured by determining the inhibition of IL-12 induced phosphorylation of STAT4 in T-blast cells. […] See, e.g., Sohn et al., J. Immunology (2013) 2205-2216.

[2] = biological target: Tyrosine-protein kinase JAK1 (Homo sapiens, UniProt P23458); assay: JAK1 (PSTAT3 TF1) Alpha Screen Assay
Sequence of Tyrosine-protein kinase JAK1 (P23458 whole entry): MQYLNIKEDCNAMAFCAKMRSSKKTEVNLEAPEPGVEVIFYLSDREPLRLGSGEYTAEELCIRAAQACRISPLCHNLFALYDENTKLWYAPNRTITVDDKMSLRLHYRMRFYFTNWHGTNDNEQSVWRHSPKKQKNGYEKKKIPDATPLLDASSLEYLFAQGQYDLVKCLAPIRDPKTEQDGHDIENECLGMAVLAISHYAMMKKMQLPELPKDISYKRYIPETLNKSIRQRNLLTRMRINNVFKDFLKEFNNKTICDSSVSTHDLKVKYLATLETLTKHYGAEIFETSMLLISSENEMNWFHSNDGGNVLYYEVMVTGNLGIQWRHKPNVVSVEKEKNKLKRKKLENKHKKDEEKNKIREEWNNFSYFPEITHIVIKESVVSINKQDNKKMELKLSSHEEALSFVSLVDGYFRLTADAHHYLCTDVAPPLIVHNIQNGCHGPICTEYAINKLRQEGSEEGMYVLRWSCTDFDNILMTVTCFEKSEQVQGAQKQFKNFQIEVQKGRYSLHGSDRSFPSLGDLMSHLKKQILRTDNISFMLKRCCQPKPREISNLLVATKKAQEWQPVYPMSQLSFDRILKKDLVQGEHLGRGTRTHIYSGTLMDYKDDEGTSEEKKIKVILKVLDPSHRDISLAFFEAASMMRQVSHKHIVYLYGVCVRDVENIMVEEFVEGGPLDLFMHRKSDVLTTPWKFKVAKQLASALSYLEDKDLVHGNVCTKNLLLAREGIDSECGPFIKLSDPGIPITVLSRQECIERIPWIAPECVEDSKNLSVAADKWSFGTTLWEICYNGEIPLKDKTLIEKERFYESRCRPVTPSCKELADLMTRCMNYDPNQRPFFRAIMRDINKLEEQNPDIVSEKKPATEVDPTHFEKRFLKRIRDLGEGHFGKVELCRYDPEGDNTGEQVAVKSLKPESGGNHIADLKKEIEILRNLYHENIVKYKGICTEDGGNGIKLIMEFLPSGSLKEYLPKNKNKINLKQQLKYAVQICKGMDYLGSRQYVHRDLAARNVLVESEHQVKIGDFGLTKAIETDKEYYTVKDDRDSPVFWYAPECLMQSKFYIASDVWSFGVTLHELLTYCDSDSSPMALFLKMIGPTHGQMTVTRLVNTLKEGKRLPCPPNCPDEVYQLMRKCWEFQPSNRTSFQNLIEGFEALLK
Experimental: IL-6 is known to transduce its signal through IL-6 receptor via Jak1. Activity against Jak was therefore measured by determining inhibition of IL-6 induced phosphorylation of STAT3 in TF1 cells. From these tests, the EC50 (effective concentration for 50% maximal response) values were determined in 1 μM for the test compounds.

Sequence of Non-receptor tyrosine-protein kinase TYK2 (P29597 whole entry): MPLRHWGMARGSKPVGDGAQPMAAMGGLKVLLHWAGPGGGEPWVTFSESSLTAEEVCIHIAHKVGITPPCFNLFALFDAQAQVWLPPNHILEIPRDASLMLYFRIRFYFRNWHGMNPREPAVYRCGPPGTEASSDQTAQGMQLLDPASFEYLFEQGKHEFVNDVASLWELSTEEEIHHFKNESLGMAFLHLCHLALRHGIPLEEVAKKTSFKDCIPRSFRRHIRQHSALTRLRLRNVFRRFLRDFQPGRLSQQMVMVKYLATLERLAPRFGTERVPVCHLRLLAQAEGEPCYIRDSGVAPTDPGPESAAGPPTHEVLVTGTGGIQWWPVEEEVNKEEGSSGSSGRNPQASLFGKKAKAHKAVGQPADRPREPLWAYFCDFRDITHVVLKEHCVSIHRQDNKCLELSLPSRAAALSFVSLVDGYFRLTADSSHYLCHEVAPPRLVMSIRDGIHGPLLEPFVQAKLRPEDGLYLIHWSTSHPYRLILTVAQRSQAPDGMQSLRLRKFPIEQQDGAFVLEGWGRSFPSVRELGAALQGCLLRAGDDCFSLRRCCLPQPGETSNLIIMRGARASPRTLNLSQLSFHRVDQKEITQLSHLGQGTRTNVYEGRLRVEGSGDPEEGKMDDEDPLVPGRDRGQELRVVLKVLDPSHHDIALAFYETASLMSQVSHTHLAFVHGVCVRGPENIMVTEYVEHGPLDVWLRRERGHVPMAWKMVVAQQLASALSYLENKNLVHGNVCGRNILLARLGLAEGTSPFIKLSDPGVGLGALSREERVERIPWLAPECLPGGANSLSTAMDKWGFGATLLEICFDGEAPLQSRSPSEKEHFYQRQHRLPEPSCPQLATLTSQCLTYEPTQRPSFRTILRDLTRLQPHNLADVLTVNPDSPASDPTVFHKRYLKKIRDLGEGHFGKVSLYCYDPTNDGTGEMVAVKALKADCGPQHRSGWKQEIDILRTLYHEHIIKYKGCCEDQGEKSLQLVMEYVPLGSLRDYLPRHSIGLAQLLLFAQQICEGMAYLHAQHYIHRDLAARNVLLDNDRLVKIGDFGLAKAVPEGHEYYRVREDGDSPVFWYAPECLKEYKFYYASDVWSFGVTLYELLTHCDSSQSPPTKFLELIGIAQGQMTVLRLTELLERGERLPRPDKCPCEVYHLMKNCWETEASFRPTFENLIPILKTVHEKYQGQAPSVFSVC

Compound	EC50 [1]	EC50 [2]
CO[C@@]1(c2cccc(-c3cn([C@H]4CC4(F)F)c4cnc(NC(N)=O)cc34)n2)CCOC1 [US20190276450, Example 1.3]	2030 nM	–
CNC(=O)Nc1cc2c(-c3cccc([C@]4(OC)CCOC4)n3)cn(C)c2cn1 [US20190276450, Example 1a.2]	288 nM	–
CO[C@]1(c2cccc(-c3cn(C)c4cnc(NC(N)=O)cc34)n2)CCOC1 [US20190276450, Example 1a]	468 nM	–
CO[C@]1(c2cc(C)cc(-c3cn(C)c4cnc(NC(N)=O)cc34)n2)CCOC1 [US20190276450, Example 1b.3]	445 nM	4460 nM
COCc1cc(-c2c[nH]c3cnc(NC(C)=O)cc23)nc([C@]2(OC)CCOC2)c1 [US20190276450, Example 2-NH]	310 nM	–
CC[C@@]1(c2cccc(-c3cn(C)c4cnc(NC(C)=O)cc34)n2)CCOC1 [US20190276450, Example 2.3]	96 nM	18000 nM
CC[C@]1(c2cccc(-c3cn(C)c4cnc(NC(C)=O)cc34)n2)CCOC1 [US20190276450, Example 2.3a]	2220 nM	–
COCc1cc(-c2cn(C)c3cnc(NC(C)=O)cc23)nc([C@@]2(OC)CCOC2)c1 [US20190276450, Example 2.4]	699 nM	–
CO[C@]1(c2cc(C#N)cc(-c3cn(C)c4cnc(NC(C)=O)cc34)n2)CCOC1 [US20190276450, Example 2.5]	694 nM	–
CO[C@@]1(c2cc(C#N)cc(-c3cn(C)c4cnc(NC(C)=O)cc34)n2)CCOC1 [US20190276450, Example 2.6]	268 nM	–
CO[C@]1(c2cc(C(F)F)cc(-c3cn(C)c4cnc(NC(C)=O)cc34)n2)CCOC1 [US20190276450, Example 2.7]	254 nM	–
CO[C@]1(c2cncc(-c3cn(C)c4cnc(NC(C)=O)cc34)n2)CCOC1 [US20190276450, Example 2.9]	716 nM	–
CO[C@@]1(c2cncc(-c3cn(C)c4cnc(NC(C)=O)cc34)n2)CCOC1 [US20190276450, Example 2.10]	368 nM	–
CO[C@]1(c2cc(C#N)cc(-c3cn([C@@H]4CC4(F)F)c4cnc(NC(C)=O)cc34)n2)CCOC1 [US20190276450, Example 2a.2]	749 nM	–
CO[C@]1(c2cc(C#N)cc(-c3cn([C@H]4CC4(F)F)c4cnc(NC(C)=O)cc34)n2)CCOC1 [US20190276450, Example 2a.4]	2360 nM	–
CO[C@@]1(c2cc(C#N)cc(-c3cn([C@H]4CC4(F)F)c4cnc(NC(C)=O)cc34)n2)CCOC1 [US20190276450, Example 2a.5]	1590 nM	–
CC[C@]1(c2cccc(-c3cn(C)c4cnc(NC(N)=O)cc34)n2)CCOC1 [US20190276450, Example 3.3]	388 nM	–
CO[C@]1(c2cc(C(F)F)cc(-c3cn(C4COC4)c4cnc(NC(C)=O)cc34)n2)CCOC1 [US20190276450, Example 4.2]	616 nM	–
COc1cc(-c2cn(C3COC3)c3cnc(NC(C)=O)cc23)nc([C@@]2(OC)CCOC2)c1 [US20190276450, Example 4.4]	353 nM	–
COc1cc(-c2cn([C@@H]3CCOC3)c3cnc(NC(C)=O)cc23)nc([C@]2(OC)CCOC2)c1 [US20190276450, Example 5.2]	156 nM	> 100000 nM
COc1cc(-c2cn([C@@H]3CCOC3)c3cnc(NC(C)=O)cc23)nc([C@@]2(OC)CCOC2)c1 [US20190276450, Example 5.3]	561 nM	–
COc1cc(-c2cn(C3COC3)c3cnc(NC(C)=O)cc23)nc([C@]2(OC)CCOC2)c1 [US20190276450, Example 5]	111 nM	> 100000 nM
CO[C@]1(c2cc(OCC3COC3)cc(-c3cn(C)c4cnc(NC(C)=O)cc34)n2)CCOC1 [US20190276450, Example 6.2]	103 nM	5200 nM
CO[C@@]1(c2cc(OCC#N)cc(-c3cn(C)c4cnc(NC(C)=O)cc34)n2)CCOC1 [US20190276450, Example 6.3]	352 nM	–
CO[C@@]1(c2cc(OC3COC3)cc(-c3cn(C)c4cnc(NC(C)=O)cc34)n2)CCOC1 [US20190276450, Example 8]	90 nM	22000 nM
CO[C@@]1(c2cc(O[C@H]3C[C@@H](O)C3)cc(-c3cn(C)c4cnc(NC(C)=O)cc34)n2)CCOC1 [US20190276450, Example 11.2]	124 nM	–
CO[C@]1(c2cc(O[C@H]3C[C@H](O)C3)cc(-c3cn(C)c4cnc(NC(C)=O)cc34)n2)CCOC1 [US20190276450, Example 11a]	496 nM	–
CO[C@]1(c2cc(C#N)cc(-c3cn(C)c4cnc(NC(N)=O)cc34)n2)CCOC1 [US20190276450, Example 12.2]	551 nM	–
COCc1cc(-c2cn(C)c3cnc(NC(N)=O)cc23)nc([C@@]2(OC)CCOC2)c1 [US20190276450, Example 12.4]	319 nM	–

The next lines start with the values.

EC50 [1]	EC50 [2]	Compound
22 nM	20000 nM	CO[C@@]1(c2cc(C(F)F)cc(-c3cn(C)c4cnc(NC(N)=O)cc34)n2)CCOC1 [US20190276450, Example 12.5]
185 nM	15000 nM	COc1cc(-c2cn(C)c3cnc(NC(N)=O)cc23)nc([C@@]2(OC)CCOC2)c1 [US20190276450, Example 12.7]
578 nM	–	CO[C@@]1(c2cc(C#N)cc(-c3cn([C@H]4CC4(F)F)c4cnc(NC(N)=O)cc34)n2)CCOC1 [US20190276450, Example 12a.2]
66 nM	> 100000 nM	CO[C@@]1(c2cc(C#N)cc(-c3cn([C@@H]4CC4(F)F)c4cnc(NC(N)=O)cc34)n2)CCOC1 [US20190276450, Example 12a.3]
15 nM	40000 nM	CO[C@@]1(c2cc(C(F)F)cc(-c3cn([C@@H]4CCOC4)c4cnc(NC(N)=O)cc34)n2)CCOC1 [US20190276450, Example 12b.2]
56 nM	68000 nM	CO[C@@]1(c2cc(C(F)F)cc(-c3cn([C@H]4CCOC4)c4cnc(NC(N)=O)cc34)n2)CCOC1 [US20190276450, Example 12b.3]
45 nM	40000 nM	CO[C@@]1(c2cc(C(F)F)cc(-c3cn(C4COC4)c4cnc(NC(N)=O)cc34)n2)CCOC1 [US20190276450, Example 12b.4]
492 nM	–	Cn1cc(-c2cccc(C3COC3)n2)c2cc(NC(N)=O)ncc21 [US20190276450, Example 13]
673 nM	–	COc1cc(-c2cn(C)c3cnc(NC(C)=O)cc23)nc(C2(O)COC2)c1 [US20190276450, Example 14.2]
339 nM	–	CC(=O)Nc1cc2c(-c3cc(OC(C)C)cc(C4(O)COC4)n3)cn(C)c2cn1 [US20190276450, Example 14.3]
563 nM	11100 nM	Cn1cc(-c2cccc(C3(O)COC3)n2)c2cc(NC(N)=O)ncc21 [US20190276450, Example 14]
1840 nM	–	NC(=O)Nc1cc2c(-c3cccc(C4(O)COC4)n3)cn([C@H]3CCOC3)c2cn1 [US20190276450, Example 15.2]
908 nM	73000 nM	NC(=O)Nc1cc2c(-c3cccc(C4(O)COC4)n3)cn([C@@H]3CCOC3)c2cn1 [US20190276450, Example 15]
3140 nM	–	COC1(c2cccc(-c3c[nH]c4cnc(NC(C)=O)cc34)n2)CCOC1 (stereo unspecified) [US20190276450, Example 16-NH]
310 nM	–	CO[C@@]1(c2cccc(-c3cn(C)c4cnc(NC(C)=O)cc34)n2)CCOC1 [US20190276450, Example 16]
1590 nM	–	CO[C@]1(c2cccc(-c3cn(C)c4cnc(NC(C)=O)cc34)n2)CCOC1 [US20190276450, Example 16a]
1520 nM	–	CO[C@@]1(c2cccc(-c3c[nH]c4cnc(NC(C)=O)cc34)n2)CCOC1 [US20190276450, Example 17-NH]
8 nM	–	CO[C@@]1(c2cc(C(F)F)cc(-c3cn([C@H]4C[C@@H](C#N)C4)c4cnc(NC(C)=O)cc34)n2)CCOC1 [US20190276450, Example 17.3]
127 nM	20000 nM	CO[C@@]1(c2cc(C)cc(-c3cn([C@H]4C[C@H](C#N)C4)c4cnc(NC(C)=O)cc34)n2)CCOC1 [US20190276450, Example 17.4]
5 nM	32000 nM	CO[C@@]1(c2cc(C)cc(-c3cn([C@H]4C[C@@H](C#N)C4)c4cnc(NC(C)=O)cc34)n2)CCOC1 [US20190276450, Example 17.5]
477 nM	–	CO[C@@]1(c2cccc(-c3cn([C@H]4C[C@@H](C#N)C4)c4cnc(NC(C)=O)cc34)n2)CCOC1 [US20190276450, Example 17a]
494 nM	–	CO[C@@]1(c2cccc(-c3cn(C4(C)COC4)c4cnc(NC(C)=O)cc34)n2)CCOC1 [US20190276450, Example 18]
537 nM	–	CO[C@@]1(c2cccc(-c3cn(C4(F)COC4)c4cnc(NC(C)=O)cc34)n2)CCOC1 [US20190276450, Example 18a]
198 nM	–	CO[C@@]1(c2cccc(-c3cn(C4(C)COC4)c4cnc(NC(N)=O)cc34)n2)CCOC1 [US20190276450, Example 19]
137 nM	45000 nM	COc1cc(-c2cn(C)c3cnc(NC(C)=O)cc23)nc([C@]2(OC)CCOC2)c1 [US20190276450, Example 20]
906 nM	–	COc1cc(-c2cn(C)c3cnc(NC(C)=O)cc23)nc([C@@]2(OC)CCOC2)c1 [US20190276450, Example 20a]
1310 nM	–	CC(=O)Nc1cc2c(-c3cccc([C@@]4(CO)CCOC4)n3)cn(C)c2cn1 [US20190276450, Example 21a]
3100 nM	–	COc1cc(-c2cn(C)c3cnc(NC(C)=O)cc23)nc([C@@]2(CO)CCOC2)c1 [US20190276450, Example 22.7]
1320 nM	–	COCCOc1cc(-c2cn(C)c3cnc(NC(C)=O)cc23)nc([C@@]2(CO)CCOC2)c1 [US20190276450, Example 22.9]
330 nM	–	COCc1cc(-c2nn(C)c3cnc(NC(C)=O)cc23)nc([C@]2(OC)CCOC2)c1 [US20190276450, Example 23]
